Source: US20240018161A1, “MODULATORS OF CYSTIC FIBROSIS TRANSMEMBRANE CONDUCTANCE REGULATOR” (VERTEX PHARMACEUTICALS INCORPORATED, priority 2020, published 2024)

What follows are compounds tested against CFTR-mediated chloride transport in human intestinal epithelial enteroid cells (Homo sapiens, UniProt P13569) (assay: Membrane potential dye, Enteroid Assay A). Details: Enteroid Assay A.
Format: cell-based
Method in brief: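 Membrane potential dye (20 μM methyl oxonol, with 30 μM CaCCinh-A01 and 30 μM Chicago Sky Blue) loaded 25 min at room temperature into ROCK-inhibitor-seeded human enteroid cells. Chloride-free stimulation buffer triggered transport, followed by 15 min fluorescence. % Activity relative to 3 μM/3 μM/300 nM triple-combination control.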

Chain of CFTR-mediated chloride transport in human intestinal epithelial enteroid cells (P13569 with tags, fused parts or gaps DEL508-508): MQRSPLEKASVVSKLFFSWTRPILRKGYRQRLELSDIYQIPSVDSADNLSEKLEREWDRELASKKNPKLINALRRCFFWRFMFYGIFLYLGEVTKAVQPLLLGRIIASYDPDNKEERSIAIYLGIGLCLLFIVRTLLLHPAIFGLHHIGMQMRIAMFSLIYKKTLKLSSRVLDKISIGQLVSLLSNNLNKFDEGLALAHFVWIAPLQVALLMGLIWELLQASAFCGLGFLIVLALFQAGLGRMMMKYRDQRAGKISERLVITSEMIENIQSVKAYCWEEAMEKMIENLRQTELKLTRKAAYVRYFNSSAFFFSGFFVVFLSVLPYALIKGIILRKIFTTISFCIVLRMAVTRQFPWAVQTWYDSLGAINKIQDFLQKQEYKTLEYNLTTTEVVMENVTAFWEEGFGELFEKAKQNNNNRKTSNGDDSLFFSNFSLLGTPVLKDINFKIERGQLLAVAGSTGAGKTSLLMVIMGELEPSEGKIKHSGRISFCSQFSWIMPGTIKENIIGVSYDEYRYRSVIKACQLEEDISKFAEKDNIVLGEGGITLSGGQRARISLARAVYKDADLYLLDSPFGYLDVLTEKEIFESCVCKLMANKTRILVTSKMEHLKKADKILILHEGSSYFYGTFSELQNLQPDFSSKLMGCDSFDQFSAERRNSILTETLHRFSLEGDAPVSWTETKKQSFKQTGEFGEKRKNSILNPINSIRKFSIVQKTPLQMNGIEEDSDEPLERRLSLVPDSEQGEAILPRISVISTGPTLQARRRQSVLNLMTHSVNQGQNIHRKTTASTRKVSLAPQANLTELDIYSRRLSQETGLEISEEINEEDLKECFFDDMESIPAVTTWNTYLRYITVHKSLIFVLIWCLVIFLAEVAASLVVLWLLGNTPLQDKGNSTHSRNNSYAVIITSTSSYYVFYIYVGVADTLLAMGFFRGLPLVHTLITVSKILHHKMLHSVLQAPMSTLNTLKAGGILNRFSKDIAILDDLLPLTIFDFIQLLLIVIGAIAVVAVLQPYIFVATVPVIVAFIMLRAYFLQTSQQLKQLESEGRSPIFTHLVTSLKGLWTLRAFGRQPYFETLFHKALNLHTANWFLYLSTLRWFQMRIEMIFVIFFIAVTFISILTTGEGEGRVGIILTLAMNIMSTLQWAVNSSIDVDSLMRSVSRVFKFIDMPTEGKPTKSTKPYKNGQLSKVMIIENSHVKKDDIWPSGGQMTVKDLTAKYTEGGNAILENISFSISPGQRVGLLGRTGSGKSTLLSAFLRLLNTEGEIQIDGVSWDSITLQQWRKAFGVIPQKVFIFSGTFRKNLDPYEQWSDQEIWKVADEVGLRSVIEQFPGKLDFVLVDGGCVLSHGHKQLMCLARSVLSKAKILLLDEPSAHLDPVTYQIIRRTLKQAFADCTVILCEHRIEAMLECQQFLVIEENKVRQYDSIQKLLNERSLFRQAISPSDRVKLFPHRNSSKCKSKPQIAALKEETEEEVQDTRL

SMILES | Ent. A Max Activity (%)
Cc1cccc(C)c1-c1cc2nc(n1)NS(=O)(=O)c1cccc(c1)C(=O)N1CCC(CCCO2)C1 (stereo not shown) [Compound 355] | ++ (++ is 30-60%)
Cc1cccc(C)c1-c1cc2nc(n1)NS(=O)(=O)c1cccc(c1)C(=O)N1CC(CCCO2)CC1(C)C (stereo not shown) [Compound 356] | ++ (++ is 30-60%)
Cc1cccc(C)c1-c1cc2nc(n1)NS(=O)(=O)c1cccc(c1)C(=O)N1CCCN(CCCC3(C(F)(F)F)CC3)CC(C1)O2 (stereo not shown) [Compound 357] | ++ (++ is 30-60%)
Cc1cccc(C)c1-c1cc2nc(n1)NS(=O)(=O)c1cccc(c1)C(=O)N1CCCN(CCC3(C(F)(F)F)CC3)CC(C1)O2 (stereo not shown) [Compound 358] | ++ (++ is 30-60%)
Cc1cccc(C)c1-c1cc2nc(n1)NS(=O)(=O)c1cccc(c1)C(=O)N1CCCN(C(=O)OC(C)(C)C)CC(C1)O2 (stereo not shown) [Compound 359] | ++ (++ is 30-60%)
Cc1cccc(C)c1-c1cc2nc(n1)NS(=O)(=O)c1cccc(c1)C(=O)N1CC(CC(C)(C)C1)O2 (stereo not shown) [Compound 362] | ++ (++ is 30-60%)

Same assay, conditions: Enteroid Assay A; read-out: Ent. A EC50

SMILES | EC50
Cc1cccc(C)c1-c1cc2nc(n1)NS(=O)(=O)c1cccc(c1)C(=O)N1CCC(CCCO2)C1 (stereo not shown) [Compound 355] | 3 to 30 µM
Cc1cccc(C)c1-c1cc2nc(n1)NS(=O)(=O)c1cccc(c1)C(=O)N1CC(CCCO2)CC1(C)C (stereo not shown) [Compound 356] | 3 to 30 µM
Cc1cccc(C)c1-c1cc2nc(n1)NS(=O)(=O)c1cccc(c1)C(=O)N1CCCN(CCCC3(C(F)(F)F)CC3)CC(C1)O2 (stereo not shown) [Compound 357] | < 1 µM
Cc1cccc(C)c1-c1cc2nc(n1)NS(=O)(=O)c1cccc(c1)C(=O)N1CCCN(CCC3(C(F)(F)F)CC3)CC(C1)O2 (stereo not shown) [Compound 358] | < 1 µM
Cc1cccc(C)c1-c1cc2nc(n1)NS(=O)(=O)c1cccc(c1)C(=O)N1CCCN(C(=O)OC(C)(C)C)CC(C1)O2 (stereo not shown) [Compound 359] | 1 to 3 µM
Cc1cccc(C)c1-c1cc2nc(n1)NS(=O)(=O)c1cccc(c1)C(=O)N1CC(CC(C)(C)C1)O2 (stereo not shown) [Compound 362] | < 1 µM

Same assay, conditions: enteroid cells incubated with test compound 18-24 hours; acute 10 μM forskolin and 300 nM N-[2,4-bis(1,1-dimethylethyl)-5-hydroxyphenyl]-1,4-dihydro-4-oxoquinoline-3-carboxamide; read-out: Ent. A EC50

SMILES | EC50
Cc1cccc(C)c1-c1cc2nc(n1)NS(=O)(=O)c1cccc(c1)C(=O)N1CCN(C(=O)OC(C)(C)C)C(CO2)C1 (stereo not shown) [Compound 322] | < 1 µM
Cc1cccc(C)c1-c1cc2nc(n1)NS(=O)(=O)c1cccc(c1)C(=O)N1CC(O2)C(N2CCOCC2)C1 (stereo not shown) [Compound 323] | 3 to 30 µM
Cc1cccc(C)c1-c1cc2nc(n1)NS(=O)(=O)c1cccc(c1)C(=O)N1CCN(C)CC1CO2 (stereo not shown) [Compound 324] | 3 to 30 µM
Cc1cccc(C)c1-c1cc2nc(n1)NS(=O)(=O)c1cccc(c1)C(=O)N1Cc3ccccc3C(C1)O2 (stereo not shown) [Compound 325] | < 1 µM
Cc1cccc(C)c1-c1cc2nc(n1)NS(=O)(=O)c1cccc(c1)C(=O)N1CCCC(C1)O2 (stereo not shown) [Compound 326] | 3 to 30 µM
Cc1cccc(C)c1-c1cc2nc(n1)NS(=O)(=O)c1cccc(c1)NC(=O)[C@@H]1CNCCN1c1cccc(c1)O2 [Compound 334] | 1 to 3 µM
CC(C)CCc1ccccc1-c1cc2nc(n1)NS(=O)(=O)c1cccc(c1)C(=O)N1Cc3ccccc3C(C1)O2 (stereo not shown) [Compound 337] | < 1 µM
Cc1cccc(C)c1-c1cc2nc(n1)NS(=O)(=O)c1cc(n(C)n1)C(=O)N1Cc3ccccc3[C@H](C1)O2 [Compound 340] | 3 to 30 µM
Cc1cccc(C)c1-c1cc2nc(n1)NS(=O)(=O)c1cc(n(C)n1)C(=O)N1Cc3ccccc3[C@H](C1)O2 [Compound 341] | 3 to 30 µM
Cc1cccc(C)c1-c1cc2nc(n1)NS(=O)(=O)c1cc(ccn1)C(=O)N1Cc3ccccc3C(C1)O2 (stereo not shown) [Compound 343] | 1 to 3 µM
Cc1cccc(C)c1-c1cc2nc(n1)NS(=O)(=O)c1cccc(c1)CN1CC(COCC(C)(C)C)CC(C1)O2 (stereo not shown) [Compound 344] | < 1 µM
Cc1cccc(C)c1-c1cc2nc(n1)NS(=O)(=O)c1cc(n(C)c1)CC(=O)N1Cc3ccccc3C(C1)O2 (stereo not shown) [Compound 348] | 1 to 3 µM
Cc1cccc(C)c1-c1cc2nc(n1)NS(=O)(=O)c1cccc(c1)C(=O)N1C[C@H]3C[C@@H]1[C@@H](C3)O2 [Compound 363] | 3 to 30 µM
Cc1cccc(C)c1-c1cc2nc(n1)NS(=O)(=O)c1cccc(c1)C(=O)N1CC3CC(O2)C1C3 (stereo not shown) [Compound 365] | 3 to 30 µM
Cc1cccc(C)c1-c1cc2nc(n1)NS(=O)(=O)c1cccc(c1)C(=O)N1CCOC[C@@H]1CO2 [Compound 366] | 3 to 30 µM
Cc1cccc(C)c1-c1cc2nc(n1)NS(=O)(=O)c1cccc(c1)C(=O)N1CCC[C@@H]1CO2 [Compound 367] | 3 to 30 µM
Cc1cccc(C)c1-c1cc2nc(n1)NS(=O)(=O)c1cccc(c1)C(=O)N1CC(C)(C)CC1CO2 (stereo not shown) [Compound 368] | 1 to 3 µM

Same assay, conditions: percentage of chloride transport of triple combination control (3 μM N-[(6-amino-2-pyridyl)sulfonyl]-6-(3-fluoro-5-isobutoxy-phenyl)-2-[(4S)-2,2,4-trimethylpyrrolidin-1-yl]pyridine-3-carboxamide based)

SMILES | Ent. A Max Activity (%)
Cc1cccc(C)c1-c1cc2nc(n1)NS(=O)(=O)c1cccc(c1)C(=O)N1CCN(C(=O)OC(C)(C)C)C(CO2)C1 (stereo not shown) [Compound 322] | ++ (++ is 30-60%)
Cc1cccc(C)c1-c1cc2nc(n1)NS(=O)(=O)c1cccc(c1)C(=O)N1CC(O2)C(N2CCOCC2)C1 (stereo not shown) [Compound 323] | ++ (++ is 30-60%)
Cc1cccc(C)c1-c1cc2nc(n1)NS(=O)(=O)c1cccc(c1)C(=O)N1CCN(C)CC1CO2 (stereo not shown) [Compound 324] | ++ (++ is 30-60%)
Cc1cccc(C)c1-c1cc2nc(n1)NS(=O)(=O)c1cccc(c1)C(=O)N1Cc3ccccc3C(C1)O2 (stereo not shown) [Compound 325] | +++ (+++ is >60%)
Cc1cccc(C)c1-c1cc2nc(n1)NS(=O)(=O)c1cccc(c1)C(=O)N1CCCC(C1)O2 (stereo not shown) [Compound 326] | + (+ is <300%)
Cc1cccc(C)c1-c1cc2nc(n1)NS(=O)(=O)c1cccc(c1)NC(=O)[C@@H]1CNCCN1c1cccc(c1)O2 [Compound 334] | +++ (+++ is >60%)
Cc1cccc(C)c1-c1cc2nc(n1)NS(=O)(=O)c1cccc(c1)C(=O)N1CCC[C@@H](C1)O2 [Compound 335] | + (+ is <300%)
Cc1cccc(C)c1-c1cc2nc(n1)NS(=O)(=O)c1cccc(c1)C(=O)N1CCC[C@H](C1)O2 [Compound 336] | + (+ is <300%)
CC(C)CCc1ccccc1-c1cc2nc(n1)NS(=O)(=O)c1cccc(c1)C(=O)N1Cc3ccccc3C(C1)O2 (stereo not shown) [Compound 337] | ++ (++ is 30-60%)
CC(C)Oc1cccc(-c2cc3nc(n2)NS(=O)(=O)c2cccc(c2)C(=O)N2Cc4ccccc4C(C2)O3)c1 (stereo not shown) [Compound 338] | + (+ is <300%)
Cc1cccc(C)c1-c1cc2nc(n1)NS(=O)(=O)c1cc(n(C)n1)C(=O)N1Cc3ccccc3[C@H](C1)O2 [Compound 340] | + (+ is <300%)
Cc1cccc(C)c1-c1cc2nc(n1)NS(=O)(=O)c1cc(n(C)n1)C(=O)N1Cc3ccccc3[C@H](C1)O2 [Compound 341] | ++ (++ is 30-60%)
Cc1cccc(C)c1-c1cc2nc(n1)NS(=O)(=O)c1cc(ccn1)C(=O)N1Cc3ccccc3C(C1)O2 (stereo not shown) [Compound 343] | ++ (++ is 30-60%)
Cc1cccc(C)c1-c1cc2nc(n1)NS(=O)(=O)c1cccc(c1)CN1CC(COCC(C)(C)C)CC(C1)O2 (stereo not shown) [Compound 344] | ++ (++ is 30-60%)
Cc1cccc(C)c1-c1cc2nc(n1)NS(=O)(=O)c1cccc(c1)CCC(=O)N1Cc3ccccc3C(C1)O2 (stereo not shown) [Compound 345] | + (+ is <300%)
Cc1cccc(C)c1-c1cc2nc(n1)NS(=O)(=O)c1cnn(c1)CCC(=O)N1Cc3ccccc3C(C1)O2 (stereo not shown) [Compound 346] | + (+ is <300%)
Cc1cccc(C)c1-c1cc2nc(n1)NS(=O)(=O)c1cnn(c1)CC(=O)N1Cc3ccccc3C(C1)O2 (stereo not shown) [Compound 347] | + (+ is <300%)
Cc1cccc(C)c1-c1cc2nc(n1)NS(=O)(=O)c1cc(n(C)c1)CC(=O)N1Cc3ccccc3C(C1)O2 (stereo not shown) [Compound 348] | ++ (++ is 30-60%)
Cc1cccc(C)c1-c1cc2nc(n1)NS(=O)(=O)c1cccc(c1)CCC(=O)N1CCC(CC1)O2 [Compound 352] | + (+ is <300%)
Cc1cccc(C)c1-c1cc2nc(n1)NS(=O)(=O)c1cccc(c1)CCC(=O)N1CCCC(C1)O2 (stereo not shown) [Compound 353] | + (+ is <300%)
Cc1cccc(C)c1-c1cc2nc(n1)NS(=O)(=O)c1cnn(c1)CC(=O)N1CCCC(C1)O2 (stereo not shown) [Compound 354] | + (+ is <300%)
Cc1cccc(C)c1-c1cc2nc(n1)NS(=O)(=O)c1cncc(c1)C(=O)N1Cc3ccccc3[C@@H](C1)O2 [Compound 360] | + (+ is <300%)
Cc1cccc(C)c1-c1cc2nc(n1)NS(=O)(=O)c1cncc(c1)C(=O)N1Cc3ccccc3[C@H](C1)O2 [Compound 361] | + (+ is <300%)
Cc1cccc(C)c1-c1cc2nc(n1)NS(=O)(=O)c1cccc(c1)C(=O)N1C[C@H]3C[C@@H]1[C@@H](C3)O2 [Compound 363] | +++ (+++ is >60%)
Cc1cccc(C)c1-c1cc2nc(n1)NS(=O)(=O)c1cccc(c1)C(=O)N1C[C@H]3C[C@@H]1[C@@H](C3)O2 [Compound 364] | ++ (++ is 30-60%)
Cc1cccc(C)c1-c1cc2nc(n1)NS(=O)(=O)c1cccc(c1)C(=O)N1CC3CC(O2)C1C3 (stereo not shown) [Compound 365] | ++ (++ is 30-60%)
Cc1cccc(C)c1-c1cc2nc(n1)NS(=O)(=O)c1cccc(c1)C(=O)N1CCOC[C@@H]1CO2 [Compound 366] | ++ (++ is 30-60%)
Cc1cccc(C)c1-c1cc2nc(n1)NS(=O)(=O)c1cccc(c1)C(=O)N1CCC[C@@H]1CO2 [Compound 367] | +++ (+++ is >60%)
Cc1cccc(C)c1-c1cc2nc(n1)NS(=O)(=O)c1cccc(c1)C(=O)N1CC(C)(C)CC1CO2 (stereo not shown) [Compound 368] | ++ (++ is 30-60%)
